Assay type in all cases: ADME, subcellular
A short description of data set [1]: Drug level in human liver S9 fraction treated with 2-(2-butyl-4-isopropyl-6-oxo-1-((2'-(5-oxo-4,5-dihydro-1,2,4-oxadiazol-3-yl)biphenyl-4-yl)methyl)-1,6-dihydropyrimidin-5-yl)acetic acid.
Data set [2] in a line: Drug level in mouse liver S9 fraction treated with 2-(2-butyl-4-isopropyl-6-oxo-1-((2'-(5-oxo-4,5-dihydro-1,2,4-oxadiazol-3-yl)biphenyl-4-yl)methyl)-1,6-dihydropyrimidin-5-yl)acetic acid.
Data set [3] is described as follows: Drug level in rat liver S9 fraction treated with 2-(2-butyl-4-isopropyl-6-oxo-1-((2'-(5-oxo-4,5-dihydro-1,2,4-oxadiazol-3-yl)biphenyl-4-yl)methyl)-1,6-dihydropyrimidin-5-yl)acetic acid.
Data set [4] is described as follows: Drug level in rat liver S9 fraction treated with BR101549.
The nature of data set [5]: Drug level in human liver S9 fraction treated with BR101549.
Data set [6] can be described thus: Drug level in mouse liver S9 fraction treated with BR101549.

On to `CCCCc1nc(C(C)C)c(CC(=O)O[C@@H]2O[C@H](C(=O)O)[C@@H](O)[C@H](O)[C@H]2O)c(=O)n1Cc1ccc(-c2ccccc2-c2noc(=O)[nH]2)cc1`, for which the Drug metabolism result is “Metabolite_Detected” in data set [1]; “Metabolite_Detected” in data set [2]; “Metabolite_Detected” in data set [3]; “Metabolite_Notdetected” in data set [4]; “Metabolite_Notdetected” in data set [5]; “Metabolite_Notdetected” in data set [6].

The values are drawn from ChEMBL document CHEMBL4330101, “Identification of BR101549 as a lead candidate of non-TZD PPARγ agonist for the treatment of type 2 diabetes: Proof-of-concept evaluation and SAR” (Bioorg Med Chem Lett, 2019).
